In assay [1] the test system is B16F10 cells. Nature of the assay: Type I interferon and ISG gene expression by Q-PCR in B16F10. Format: cell-based, mouse. The settings on record: GGOH 20 μM with Sim 10 μM or Zol 10 μM, 48 h. As to the method: Method: B16F10 cells were cultured with RPMI medium 1640+10% FBS+1% PS, and the remaining cells were cultured with DMEM+10% FBS+1% PS. 5×10^5 B16F10 and 4T1 cells were plated in 6-well plates and adhered for 12 hours, and then treated with simvastatin and zoledronic acid in the figure, and the control group was treated with normal culture medium. A part of the cells treated with the drugs were lysed with 1 ml of Trizol, and RNA was extracted. The expression of IFN-β1, IRF7, IFI44L, IL-15, MAGEB-2 and other genes was detected by LightCycler® 480 II using a Q-PCR method (see table 3 for the primer sequence). In addition, the rescue effect of GGOH on the role of simvastatin and zoledronic acid to promote the release of type I interferon (IFN-β1) and the expression of type I interferon-related stimulated genes ISGs was also tested.

For assay [2], the system named is B16F10 cells. The assay can be described thus: Phagocytosis of drug-treated B16F10 cells by bone marrow-derived DC cells. In kind it is cell-based, mouse. Conditions: B16F10 treated with Sim 30 μM 12 h, Zol 30 μM 24 h, Doxorubicin 10 μM 12 h; flow cytometry. The method, then: Method: C57/b6 mouse bone marrow cells were cultured in DC differentiation solution, RMPI 1640+10 ng/ml GM-CSF+10 ng/ml IL-4 containing 10% FBS for 7 days. It was ready for use when the percentage of DC cells was above 90%.
B16F10 cells were plated in 6-well plates at a density of 5×10^5. After being adhered for 12 hours, they were treated with Sim and Zol in the figure, and the control group was treated with normal culture medium. The cells treated with the drug were digested with trypsin, and the cells were obtained after centrifugation.
Cell Staining: Flow Cytometry Staining: B16F10 tumor cells were stained for 30 min in 1 ug/ml CFSE at room temperature, and washed twice with PBS after staining; BMDC cells were stained for 30 min in 1 uM CellTracker™ Red, and washed twice with PBS after staining. Cells were ready for use. Immunofluorescence staining: B16F10 cells were stained with DiD, and DC cells were stained with CFSE.
After the drug treatment, the B16F10 control group Ctrl, Sim treatment group, Zol treatment group, and DOX treatment group were co-incubated with DC cells in a 1:1 ratio for 3 hours in an incubator at 37° C., and fixed with 200 ul fluorescent antibody preservation solution (1 ml formaldehyde, 2 g glucose dissolved in 100 ml PBS) after the incubation. Flow cytometer BD FACSAria SORP was used for detection. Data was analyzed with Flojo 7.6.2 software. Cell Tracker™ Red-positive DC cells were first circled out, and the number of CellTracker™ Red-positive DC cells phagocytosing CFSE-positive tumor cells was analysized.
For orientation: Flow cytometry measures light scatter and fluorescence of single cells or particles in a stream.

The next assay relates to 4T1 cells. The assay can be described thus: CRT and ERp57 on tumor cell membrane after intratumoral injection, 4T1 subcutaneous model. Format: in vivo, mouse. Conditions: 4T1 tumors in BALB/c mice, harvested day 14. The method, then: In vivo experiments: 1×10^6 4 T1 cells were transplanted subcutaneously into the left hip of BALB/c mice and administered starting on the 8th day after tumor transplantation: Sim, dissolved in 75% DMSO, 2 mg/kg, intratumoral injection (i.t.), once every two days for a total of 3 times; Zol, dissolved in sterile PBS, 1 mg/kg, i.t. for once. Tumors were harvested on the 14th day after tumor transplantation. Tumor dissociation kit (mouse) was used to dissociate the tumor into single cells for staining. The staining procedure was performed according to the in vitro experiments as mentioned above.

Assay [3] deals with B16F10 cells. Nature of the assay: Apoptosis of B16F10 cells, Annexin V and PI staining, flow cytometry. In kind it is cell-based, mouse. The settings on record: after the drug treatment. The method, then: After the drug action, the cells were digested with trypsin into a single-cell suspension, washed with PBS, and stained with Annexin V and PI according to the steps of the apoptosis kit. After staining, data was collected by a flow cytometer, and the data was analyzed by FlowJo7.6. Total RNA was extracted from cells according to the Trizol method, and the RNA was used as a template, and the RNA was reverse transcripted using a reverse transcription kit to cDNA. The obtained cDNA was used for real-time quantitative PCR. 10 μl reaction system was configured according to qPCR SYBR Green Master Mix product instructions, three replicates were set up for each sample. The experimental data was collected using a fluorogenic quantitative PCR instrument LightCycler480 of Roche, and the data was calculated according to the 2^−ΔΔc (t) method.

The subject of a further assay is CT26 cells. Nature of the assay: Drug-treated dying CT26 cells as tumor vaccine, re-challenge with live CT26 cells. Format: in vivo, mouse. The settings on record: BALB/c mice immunized with CT26 cells treated 72 h; 30 days after transplantation; n=10. As to the method: Method: CT26 cells were treated with simvastatin or zoledronic acid. 1.5-3×10^6 dying cells were implanted subcutaneously in the right side of BALB/c mice. The control group was injected with PBS. 1×10^6 live CT26 cells were implanted subcutaneously in the left side of the mice, and tumor volume was observed and measured. Mice with tumor volumes >100 mm^3 were identified as tumor-growing mice, and the number of mice without tumor growth was recorded.
A key factor to determine the ability of drugs to induce immunogenic cell death is whether drug-treated tumor cells can be used as vaccines to protect the body against the re-challenge of the tumor cells. We treated CT26 mouse colon cancer cells with Sim and Zol for 72 h to a dying state, and BALB/c mice were immuned with these dying cells, wherein PBS was injected in the control group. After 7 days, the mice were injected with 5×10^5 live CT26 cells (re-challenge), and the tumor growth was observed after 7 days. 100% of the mice in the control group (n=10) grew tumors on day 9. After 30 days of transplantation, in mice immunized with CT26 cells treated with Sim (n=10) and Zol (n=10), the ratios of tumor-free mice were 80% and 90%, respectively, with statistical difference (FIG. 5).

For assay [4] the following is noted: after at least 3 years of treatment; more than 1,800 patients; cited from earlier work.
For another assay, the system named is melanoma. The settings on record: patients progressing after Ipilimumab; cited from earlier work.

Turning to `CC(C)=CCC/C(C)=C/CC/C(C)=C/CC/C(C)=C/CO` [GGOH], the “effect of GGOH on release of type I interferon and ISG by simvastatin and zoledronic acid” value in the assay with B16F10 cells [1] is given as “counteract”.

For the molecule `COc1cccc2c1C(=O)c1c(O)c3c(c(O)c1C2=O)C[C@@](O)(C(=O)CO)C[C@@H]3O[C@H]1C[C@H](N)[C@H](O)[C@H](C)O1` [dox, doxorubicin], the “DC cells that phagocytosed tumor cells” value in the assay with B16F10 cells [2] was “approximately 38%”.

`CCC(C)(C)C(=O)O[C@H]1C[C@@H](C)C=C2C=C[C@H](C)[C@H](CC[C@@H]3C[C@@H](O)CC(=O)O3)[C@H]21` [simvastatin]: the “DC cells that phagocytosed tumor cells” value in the assay on B16F10 cells [2] came out at 51.6%. Also, in the assay on 4T1 cells, the “CRT expressed on the membrane surface” value is listed as “about 1.7 times that of the control group” and the “ERp57 expressed on the membrane surface” value is “about 1.7 times that of the control group”. The “proportion of cells in the late stage of apoptosis (Annexin+PI+)” value in the assay on B16F10 cells [3] is on record as “about 50%”. Moreover, the “ratio of tumor-free mice” value in the assay on CT26 cells is given as 80%.

For the molecule `O=P(O)(O)C(O)(Cn1ccnc1)P(=O)(O)O` [zoledronic acid], in the assay on B16F10 cells [2], the “DC cells that phagocytosed tumor cells” value is recorded as “about 35%”. Moreover, in the assay with 4T1 cells, the “CRT expressed on the membrane surface” value was “about 1.7 times that of the control group” and the “ERp57 expressed on the membrane surface” value is “about 1.7 times that of the control group”. The “proportion of cells in the late stage of apoptosis (Annexin+PI+)” value with B16F10 cells [3] is “about 50%”. For the same molecule, the “ratio of tumor-free mice” value in the assay on CT26 cells is 90%.

As to Ipilimumab: humanized CTLA-4 antibody, the patient survival rate result in assay [4] is recorded as “approximately 20%”.

Consider Nivolumab: antibody targeting PD-1, for which the “patients with complete remission” value in the assay on melanoma is recorded as 32%.

Values taken from patent publication US20210008084A1, “MEVALONATE PATHWAY INHIBITOR AND PHARMACEUTICAL COMPOSITION THEREOF” (TSINGHUA UNIVERSITY, priority 2017, published 2021).
